# Measured values published in patent US20080213250A1, “Use of Eph Receptor Inhibitors for the Treatment of Neurodegenerative Diseases” (priority 2004, published 2008).
# Columns and labels:
# Assay in all cases: Chemical proteomics pull-down with immobilized compound, LC-MS/MS identification
# Details in all cases: maximum in any chemical proteomics experiment
# EphB4 = target: T1, EphB4 (Mus musculus, UniProt P54761)
# T1 sequence (P54761 16-987): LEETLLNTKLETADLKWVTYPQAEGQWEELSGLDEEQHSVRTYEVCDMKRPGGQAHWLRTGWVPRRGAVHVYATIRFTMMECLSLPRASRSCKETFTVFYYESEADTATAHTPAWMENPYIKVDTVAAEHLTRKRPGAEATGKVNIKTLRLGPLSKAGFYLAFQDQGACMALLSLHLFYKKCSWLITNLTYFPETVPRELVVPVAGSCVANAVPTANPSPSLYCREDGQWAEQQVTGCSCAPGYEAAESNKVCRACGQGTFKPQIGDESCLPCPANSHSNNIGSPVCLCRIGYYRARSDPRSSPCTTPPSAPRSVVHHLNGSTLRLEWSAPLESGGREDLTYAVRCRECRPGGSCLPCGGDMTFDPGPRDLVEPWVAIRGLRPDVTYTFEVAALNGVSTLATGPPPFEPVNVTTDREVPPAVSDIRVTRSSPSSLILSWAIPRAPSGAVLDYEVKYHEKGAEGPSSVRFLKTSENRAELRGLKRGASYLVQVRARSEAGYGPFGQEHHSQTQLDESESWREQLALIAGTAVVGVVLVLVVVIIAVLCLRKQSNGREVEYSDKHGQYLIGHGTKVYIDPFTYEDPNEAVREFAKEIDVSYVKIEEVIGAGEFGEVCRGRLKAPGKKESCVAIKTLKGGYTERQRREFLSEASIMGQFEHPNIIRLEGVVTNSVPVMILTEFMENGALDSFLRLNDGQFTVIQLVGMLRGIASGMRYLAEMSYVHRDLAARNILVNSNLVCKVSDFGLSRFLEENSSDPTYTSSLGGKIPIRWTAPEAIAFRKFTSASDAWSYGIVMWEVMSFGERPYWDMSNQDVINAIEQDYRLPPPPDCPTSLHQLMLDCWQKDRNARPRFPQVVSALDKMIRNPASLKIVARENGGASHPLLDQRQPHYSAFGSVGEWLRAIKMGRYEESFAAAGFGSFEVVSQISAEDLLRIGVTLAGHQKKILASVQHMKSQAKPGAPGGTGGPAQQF
# EphA4 = EphA4 (Mus musculus, UniProt Q03137)
# EphB3 = target: T2, EphB3 (Mus musculus, UniProt P54754)
# T2 sequence (P54754 30-993): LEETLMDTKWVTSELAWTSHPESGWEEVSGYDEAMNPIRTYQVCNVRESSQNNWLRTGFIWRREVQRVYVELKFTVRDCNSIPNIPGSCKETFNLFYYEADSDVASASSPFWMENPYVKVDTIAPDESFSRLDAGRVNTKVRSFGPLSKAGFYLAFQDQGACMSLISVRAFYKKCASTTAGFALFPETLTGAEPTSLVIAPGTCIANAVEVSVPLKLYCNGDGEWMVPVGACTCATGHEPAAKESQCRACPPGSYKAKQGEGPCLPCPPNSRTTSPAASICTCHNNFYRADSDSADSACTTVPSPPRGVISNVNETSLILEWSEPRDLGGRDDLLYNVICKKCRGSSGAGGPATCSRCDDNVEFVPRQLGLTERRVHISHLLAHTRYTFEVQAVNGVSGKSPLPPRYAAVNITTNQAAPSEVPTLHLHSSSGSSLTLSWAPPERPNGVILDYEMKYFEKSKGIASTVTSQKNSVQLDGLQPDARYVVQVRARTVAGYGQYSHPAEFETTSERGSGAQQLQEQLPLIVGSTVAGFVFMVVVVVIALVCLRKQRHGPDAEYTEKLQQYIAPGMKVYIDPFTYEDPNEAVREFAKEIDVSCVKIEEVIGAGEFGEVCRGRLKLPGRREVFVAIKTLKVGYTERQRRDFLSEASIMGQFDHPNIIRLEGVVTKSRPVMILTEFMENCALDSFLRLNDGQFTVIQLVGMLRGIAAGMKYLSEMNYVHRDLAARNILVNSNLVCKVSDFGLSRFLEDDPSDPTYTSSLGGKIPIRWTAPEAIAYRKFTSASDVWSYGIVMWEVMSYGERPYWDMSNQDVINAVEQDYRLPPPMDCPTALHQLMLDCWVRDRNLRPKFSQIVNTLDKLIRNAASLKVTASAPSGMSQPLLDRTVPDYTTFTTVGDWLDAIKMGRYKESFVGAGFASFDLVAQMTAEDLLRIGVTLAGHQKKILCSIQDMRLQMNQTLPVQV
# EphB2 = target: T3, EphB2 (Mus musculus, UniProt P54763)
# T3 sequence (P54763 19-986): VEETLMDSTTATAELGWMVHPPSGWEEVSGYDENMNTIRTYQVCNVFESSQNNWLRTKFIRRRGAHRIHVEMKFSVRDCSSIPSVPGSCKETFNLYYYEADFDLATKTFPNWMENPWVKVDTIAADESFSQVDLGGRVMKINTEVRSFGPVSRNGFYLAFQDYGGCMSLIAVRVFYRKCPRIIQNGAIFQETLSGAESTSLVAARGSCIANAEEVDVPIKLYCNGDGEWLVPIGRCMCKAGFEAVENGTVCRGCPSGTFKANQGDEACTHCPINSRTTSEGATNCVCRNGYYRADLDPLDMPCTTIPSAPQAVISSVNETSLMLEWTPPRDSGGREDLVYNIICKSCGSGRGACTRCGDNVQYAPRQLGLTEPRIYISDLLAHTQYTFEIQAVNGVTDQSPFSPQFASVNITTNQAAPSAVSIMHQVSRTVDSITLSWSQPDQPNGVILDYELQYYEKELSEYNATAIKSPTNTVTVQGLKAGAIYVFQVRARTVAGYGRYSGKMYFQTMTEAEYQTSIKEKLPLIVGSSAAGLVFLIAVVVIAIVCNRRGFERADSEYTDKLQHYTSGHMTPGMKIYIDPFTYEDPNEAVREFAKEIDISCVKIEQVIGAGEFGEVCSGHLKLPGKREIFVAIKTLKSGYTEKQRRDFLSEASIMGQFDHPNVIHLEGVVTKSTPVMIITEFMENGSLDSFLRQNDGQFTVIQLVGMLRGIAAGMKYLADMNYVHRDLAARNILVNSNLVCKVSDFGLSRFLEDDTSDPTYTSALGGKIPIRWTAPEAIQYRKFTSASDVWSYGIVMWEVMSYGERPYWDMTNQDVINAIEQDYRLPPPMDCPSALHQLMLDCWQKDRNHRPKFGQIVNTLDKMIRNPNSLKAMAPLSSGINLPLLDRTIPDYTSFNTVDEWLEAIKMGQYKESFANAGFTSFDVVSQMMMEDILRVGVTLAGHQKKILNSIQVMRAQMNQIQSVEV
# Chain of EphA4 (Q03137 20-986): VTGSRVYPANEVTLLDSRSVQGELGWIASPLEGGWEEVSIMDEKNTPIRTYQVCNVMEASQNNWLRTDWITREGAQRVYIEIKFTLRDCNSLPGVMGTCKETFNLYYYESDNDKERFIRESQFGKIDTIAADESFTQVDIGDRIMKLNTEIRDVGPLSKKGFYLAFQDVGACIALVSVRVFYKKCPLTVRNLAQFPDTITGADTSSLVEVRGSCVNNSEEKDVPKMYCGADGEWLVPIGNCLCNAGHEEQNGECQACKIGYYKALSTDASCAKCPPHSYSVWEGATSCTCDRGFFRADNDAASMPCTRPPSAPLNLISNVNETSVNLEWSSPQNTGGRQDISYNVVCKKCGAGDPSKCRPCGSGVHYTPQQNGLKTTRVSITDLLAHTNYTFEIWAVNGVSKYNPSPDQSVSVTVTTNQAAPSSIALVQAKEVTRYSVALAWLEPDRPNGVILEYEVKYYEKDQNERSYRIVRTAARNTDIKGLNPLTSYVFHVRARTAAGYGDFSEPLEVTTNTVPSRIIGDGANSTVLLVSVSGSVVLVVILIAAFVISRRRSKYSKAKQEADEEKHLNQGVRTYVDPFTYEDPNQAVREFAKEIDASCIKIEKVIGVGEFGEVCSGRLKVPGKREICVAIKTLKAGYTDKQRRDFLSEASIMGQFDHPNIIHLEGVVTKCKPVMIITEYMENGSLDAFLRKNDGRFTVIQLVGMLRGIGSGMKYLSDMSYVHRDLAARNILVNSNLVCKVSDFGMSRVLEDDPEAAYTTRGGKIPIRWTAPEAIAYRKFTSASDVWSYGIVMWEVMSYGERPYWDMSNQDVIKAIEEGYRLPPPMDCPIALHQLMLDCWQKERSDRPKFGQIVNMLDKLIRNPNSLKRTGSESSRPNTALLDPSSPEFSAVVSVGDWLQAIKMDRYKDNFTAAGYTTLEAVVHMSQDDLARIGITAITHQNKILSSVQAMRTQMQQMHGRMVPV
"maximal number of non-redundant peptides identified, EphB4 (EphB4)","maximal number of non-redundant peptides identified, EphA4 (EphA4)","maximal number of non-redundant peptides identified, EphB3 (EphB3)","maximal number of non-redundant peptides identified, EphB2 (EphB2)",Compound
17,47,17,35,CSc1cccc(Nc2ncc3cc(-c4c(Cl)cccc4Cl)c(=O)n(C)c3n2)c1 [PD173955]
46,14,4,23,CC(C)[C@H](CO)Nc1nc(Nc2ccc(C(=O)O)c(Cl)c2)c2ncn(C(C)C)c2n1 [Purvalanol B]
